From patent US20100004284A1, “Novel Heterocyclic Compounds as Positive Allosteric Modulators of Metabotropic Glutamate Receptors” (ADDEX PHARMA SA, priority 2005, published 2010) come the findings set out here.

One may read the IC50 as the concentration needed to halve the response being measured. In general, EC50 refers to the concentration at which the effect is half-maximal.

Assay [1] concerns the target T1, mGluR5 (Rattus norvegicus, UniProt P31424).
T1 construct: positive allosteric modulators of mGluR5 receptors in native preparations; endogenous in cells; host or cells: primary cortical astrocytes from Sprague-Dawley rat embryos (E16-19)
Kind of assay: mGluR5 binding assay ([3H]-MPEP radioligand binding, rat brain membranes). The settings on record: 3 nM [3H]-MPEP, 1 h at 4° C., read-out: IC50, inhibition of [3H]-MPEP binding. The text has this:
Activity of compounds of the invention was examined following a radioligand binding technique using whole rat brain and tritiated 2-methyl-6-(phenylethynyl)-pyridine ([^3H]-MPEP) as a ligand following similar methods than those described in Gasparini et al. (2002) Bioorg. Med. Chem. Lett. 12:407-409 and in Anderson et al. (2002) J. Pharmacol. Exp. Ther. 303 (3) 1044-1051.
Cortices were dissected out from brains of 200-300 g Sprague-Dawley rats (Charles River Laboratories, L'Arbresle, France). Tissues were homogenized in 10 volumes (vol/wt) of ice-cold 50 mM HEPES-NaOH (pH 7.4) using a Polytron disrupter (Kinematica AG, Luzern, Switzerland) and centrifuged for 30 min at 40,000 g. (4° C.). […] Protein concentration was determined by the Bradford method (Bio-Rad protein assay, Reinach, Switzerland) with bovine serum albumin as standard.
Membranes were thawed and resuspended in binding buffer containing 20 mM HEPES-NaOH, 3 mM MgCl2, 3 mM CaCl2, 100 mM NaCl, pH 7.4. […] Radioactivity was determined by liquid scintillation spectrometry using a 96-well plate reader (TopCount, Perkin-Elmer, Downers Grove, USA).
The inhibition curves were generated using the Prism GraphPad program (Graph Pad Software Inc, San Diego, USA). […] The mean of IC50 obtained from at least three independent experiments of selected molecules performed in duplicate were calculated.

In assay [2] the target is T2, rat mGluR5 (Rattus norvegicus, UniProt P31424).
T2 construct: expressed in transfected cells
Kind of assay: mGluR5 assay on HEK-expressing rat mGluR5 (fluorescent cell based Ca2+ mobilization assay). The settings on record: HEK-293 cells stably expressing rat mGluR5; no co-addition of glutamate; mean of at least three independent experiments in duplicate; read-out: Ca++ Flux (mean EC50). As to the method: Positive functional expression of HEK-293 cells stably expressing rat mGluR5 receptor was determined by measuring intracellular Ca^2+ changes using a Fluorometric Imaging Plate Reader (FLIPR, Molecular Devices, Sunnyvale, Calif.) in response to glutamate or selective known mGluR5 agonists and antagonists. Rat mGluR5RT-PCR products in HEK-293 cells were sequenced and found 100% identical to rat mGluR5Genbank reference sequence (NM_017012). HEK-293 cells expressing rmGluR5 were maintained in media containing DMEM, dialyzed Fetal Bovine Serum (10%), Glutamax™ (2 mM), Penicillin (100 units/ml), Streptomycin (100 μg/ml), Geneticin (100 μg/ml) and Hygromycin-B (40 μg/ml) at 37° C./5% CO2.
After one day of incubation, cells were washed with assay buffer containing: 142 mM NaCl, 6 mM KCl, 1 mM […], 1 mM CaCl2, 20 mM HEPES, 1 g/L glucose, 0.125 mM sulfinpyrazone, pH 7.4. After 60 min of loading with 4 uM Fluo-4 (TefLabs, Austin, Tex.), the cells were washed three times with 50 μl of PBS Buffer and resuspended in 45 μl of assay Buffer. The plates were then transferred to a Fluorometric Imaging Plate Reader (FLIPR, Molecular Devices, Sunnyvale, Calif.) for the assessment of intracellular calcium flux. After monitoring the baseline fluorescence for 10 seconds, increasing concentrations of representative compound (from 0.01 to 60 μM) of the present invention diluted in Assay Buffer (15 μl of 4× dilutions) was added to the cell. The final DMSO concentration in the assay was 0.3%. In each experiment, fluorescence was then monitored as a function of time for 3 minutes and the data analyzed using Microsoft Excel and GraphPad Prism. Each data point was also measured two times.
Under these experimental conditions, this HEK-rat mGluR5 cell line is able to directly detect positive allosteric modulators without the need of co-addition of glutamate or mGluR5 agonist.
The concentration-response curves of representative compounds of the present invention were generated using the Prism GraphPad software (Graph Pad Inc, San Diego, USA). The curves were fitted to a four-parameter logistic equation:
(Y=Bottom+(Top−Bottom)/(1+10̂((Log EC50−X)*Hill Slope)
allowing determination of EC50 values.
The Table 5 below represents the mean EC50 obtained from at least three independent experiments of selected molecules performed in duplicate.
On the technique in general: Calcium flux is commonly read through the fluorescence of an indicator in the cells.

T2 sequence (P31424 21-1171 isoform P31424-2 limits assumed): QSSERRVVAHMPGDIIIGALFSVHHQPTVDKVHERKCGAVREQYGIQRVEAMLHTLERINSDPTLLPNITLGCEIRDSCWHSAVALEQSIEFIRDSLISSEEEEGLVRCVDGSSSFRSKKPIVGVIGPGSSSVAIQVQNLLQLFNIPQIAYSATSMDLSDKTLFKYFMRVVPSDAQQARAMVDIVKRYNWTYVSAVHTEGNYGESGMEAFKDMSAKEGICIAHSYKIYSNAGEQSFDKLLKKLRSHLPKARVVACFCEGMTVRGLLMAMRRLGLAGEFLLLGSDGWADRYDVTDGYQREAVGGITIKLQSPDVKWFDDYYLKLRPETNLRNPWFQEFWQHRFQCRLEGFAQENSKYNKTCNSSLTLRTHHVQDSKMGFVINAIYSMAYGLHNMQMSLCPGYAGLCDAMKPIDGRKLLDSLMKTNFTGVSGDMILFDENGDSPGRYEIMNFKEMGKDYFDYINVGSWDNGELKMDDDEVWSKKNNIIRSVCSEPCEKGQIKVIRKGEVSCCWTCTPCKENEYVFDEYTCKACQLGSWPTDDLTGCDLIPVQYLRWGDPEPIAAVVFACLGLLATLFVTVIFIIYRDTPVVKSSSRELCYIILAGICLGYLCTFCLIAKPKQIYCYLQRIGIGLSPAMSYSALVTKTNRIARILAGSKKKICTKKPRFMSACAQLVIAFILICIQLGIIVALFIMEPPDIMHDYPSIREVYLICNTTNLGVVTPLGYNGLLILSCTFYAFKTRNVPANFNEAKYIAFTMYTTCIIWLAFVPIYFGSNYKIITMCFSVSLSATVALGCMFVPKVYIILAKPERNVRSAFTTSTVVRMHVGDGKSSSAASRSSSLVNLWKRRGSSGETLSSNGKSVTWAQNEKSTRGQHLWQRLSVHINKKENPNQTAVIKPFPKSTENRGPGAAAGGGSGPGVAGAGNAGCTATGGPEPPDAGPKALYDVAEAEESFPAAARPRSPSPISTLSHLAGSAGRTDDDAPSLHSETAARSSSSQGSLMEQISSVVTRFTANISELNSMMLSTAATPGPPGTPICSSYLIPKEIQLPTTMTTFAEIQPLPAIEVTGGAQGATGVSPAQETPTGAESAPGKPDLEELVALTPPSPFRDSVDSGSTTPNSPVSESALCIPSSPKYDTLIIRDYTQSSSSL
T1 sequence (P31424 21-1203): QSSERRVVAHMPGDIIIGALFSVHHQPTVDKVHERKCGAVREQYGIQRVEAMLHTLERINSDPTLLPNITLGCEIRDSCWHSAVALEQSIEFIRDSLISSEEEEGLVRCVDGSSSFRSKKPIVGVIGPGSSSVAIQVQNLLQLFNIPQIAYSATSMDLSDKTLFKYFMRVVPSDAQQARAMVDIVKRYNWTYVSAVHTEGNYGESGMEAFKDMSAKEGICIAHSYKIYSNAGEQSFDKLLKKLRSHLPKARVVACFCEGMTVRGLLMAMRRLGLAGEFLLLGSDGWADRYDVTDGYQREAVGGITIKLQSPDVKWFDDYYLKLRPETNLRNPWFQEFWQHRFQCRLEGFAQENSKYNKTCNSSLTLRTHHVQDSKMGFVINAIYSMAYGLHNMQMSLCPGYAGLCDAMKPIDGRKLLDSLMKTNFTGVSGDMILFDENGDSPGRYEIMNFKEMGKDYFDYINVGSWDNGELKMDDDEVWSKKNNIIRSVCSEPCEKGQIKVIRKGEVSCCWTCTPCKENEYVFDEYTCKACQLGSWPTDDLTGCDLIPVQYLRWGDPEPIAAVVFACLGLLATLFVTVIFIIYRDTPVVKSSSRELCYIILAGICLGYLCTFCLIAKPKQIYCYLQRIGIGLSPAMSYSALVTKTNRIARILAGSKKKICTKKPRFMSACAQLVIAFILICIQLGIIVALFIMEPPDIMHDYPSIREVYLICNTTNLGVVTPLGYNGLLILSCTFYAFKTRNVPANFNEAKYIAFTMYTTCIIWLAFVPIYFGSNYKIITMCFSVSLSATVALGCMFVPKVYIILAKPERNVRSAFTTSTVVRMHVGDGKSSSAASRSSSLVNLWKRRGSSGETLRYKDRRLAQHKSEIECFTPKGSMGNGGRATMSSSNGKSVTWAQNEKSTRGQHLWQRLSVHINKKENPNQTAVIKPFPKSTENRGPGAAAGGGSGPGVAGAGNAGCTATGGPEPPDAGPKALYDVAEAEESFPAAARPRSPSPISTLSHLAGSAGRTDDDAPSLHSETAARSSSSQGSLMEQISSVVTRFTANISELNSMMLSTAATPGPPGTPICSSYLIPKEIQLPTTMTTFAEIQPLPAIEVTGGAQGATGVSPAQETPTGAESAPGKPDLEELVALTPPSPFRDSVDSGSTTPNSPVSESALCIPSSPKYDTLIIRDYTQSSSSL

For `O=C(c1ccc(F)cc1)N1CCC[C@H](c2nc(Cc3ccc(F)cc3)no2)C1` [Example 1, {(S)-3-[3-(4-Fluoro-benzyl)-[1,2,4]oxadiazol-5-yl]-piperidin-1-yl}-(4-fluoro-phenyl)-methanone], the IC50 in assay [1] is less than 30 µM. Besides, in assay [2], the EC50 is less than 1 µM.
